Test results reported in patent US6737383B1, “Herbicidal oxadiazolidines” (priority 1999, dated 2004).

Tests used:
cocklebur = experiment: Test B pre/postemergence cocklebur; type: in vivo, Xanthium strumarium
Method in brief: (§1)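 Herbicidal effect was estimated by eye on a ten-point control scale after plants spent twelve to sixteen days in a greenhouse following soil or foliar treatment. Foliar sprays targeted plants at one to four leaves; all doses were formulated in a non-phytotoxic solvent with surfactant.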

giant foxtail = experiment: Test B pre/postemergence giant foxtail; type: in vivo, Setaria faberii
Method in brief: as §1

morningglory = experiment: Test B pre/postemergence morningglory; type: in vivo, Ipomoea hederacea
Method in brief: as §1

bamyardgrass = experiment: Test B flood test barnyardgrass; type: in vivo, Echinochloa crus-galli
Method in brief: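 Read-out is a visual response score from 0 (no effect) to 10 (complete control), assigned by comparison with untreated controls. Treatment was applied at the 2-leaf stage, and plants stayed in the greenhouse for twelve to sixteen days before scoring.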

[1] = Postemergence, Rate 125 g/ha, scale 0 to 10, 0 is no effect, 10 is complete control
[2] = Preemergence, Rate 62 g/ha, scale of 0 to 10 where 0 is no effect and 10 is complete control
[3] = Preemergence, Rate 250 g/ha, scale of 0 to 10 where 0 is no effect and 10 is complete control
[4] = Preemergence, Rate 500 g/ha, scale of 0 to 10 where 0 is no effect and 10 is complete control
[5] = Rate 62 g/ha, Postemergence, scale 0 to 10 (0 no effect, 10 complete control)
[6] = Rate 500 g/ha, Postemergence, scale 0 to 10, 0 no effect, 10 complete control
[7] = Rate 62 g/ha, headed Pre-emergence (flood test species), scale 0 to 10 (0 no effect, 10 complete control)
[8] = Rate 125 g/ha, Pre-emergence, flood test species, scale 0 to 10 where 0 is no effect and 10 is complete control
[9] = Rate 250 g/ha, Pre-emergence, flood-test species, scale 0 to 10, 0 is no effect, 10 is complete control
[10] = Rate 500 g/ha, Pre-emergence, flood test species, scale 0 to 10 (0 no effect, 10 complete control)
[11] = Rate 62 g/ha, Postemergence, scale of 0 to 10 where 0 is no effect and 10 is complete control
[12] = Preemergence, Rate 62 g/ha, scale 0 to 10 (0 no effect, 10 complete control)
[13] = Postemergence (flood test), Rate 125 g/ha, scale 0 to 10, 0 is no effect, 10 is complete control
[14] = Rate 62 g/ha, Postemergence (flood test species), scale of 0 to 10 where 0 is no effect and 10 is complete control
[15] = Rate 250 g/ha, Postemergence (flood test species), scale of 0 to 10 where 0 is no effect and 10 is complete control
[16] = Rate 500 g/ha, listed under Postemergence (flood test species), scale 0 to 10, 0 no effect, 10 complete control
[17] = Postemergence, Rate 250 g/ha, scale 0 to 10, 0 is no effect, 10 is complete control

Compound	Plant response rating, Cocklebur (cocklebur; [1])	Cocklebur plant response rating (cocklebur; [2])	Cocklebur plant response rating (0 to 10 scale) (cocklebur; Preemergence, Rate 125 g/ha)	Cocklebur plant response rating (cocklebur; [3])	Cocklebur plant response rating (cocklebur; [4])	Plant response rating, Cocklebur (cocklebur; [6])	Plant response rating, Giant foxtail (giant foxtail; [1])	Giant foxtail plant response rating (giant foxtail; [2])	Giant foxtail plant response rating (0 to 10 scale) (giant foxtail; Preemergence, Rate 125 g/ha)	Giant foxtail plant response rating (giant foxtail; [3])	Giant foxtail plant response rating (giant foxtail; [4])	Plant response rating, Giant foxtail (giant foxtail; [6])	Plant response rating, Morningglory (morningglory; [1])	Morningglory plant response rating (morningglory; [2])	Morningglory plant response rating (0 to 10 scale) (morningglory; Preemergence, Rate 125 g/ha)	Morningglory plant response rating (morningglory; [3])	Morningglory plant response rating (morningglory; [4])	Plant response rating, Morningglory (morningglory; [6])	Barnyardgrass plant response rating (bamyardgrass; [9])	Barnyardgrass plant response rating (bamyardgrass; [10])	further results
CC(C)N(C(=O)n1oc(=O)n(-c2ccc3ccccc3c2)c1=O)c1ccc(F)cc1F [Compound 335]	0	0	0	0	0	0	0	2	4	10	10	0	0	0	0	0	0	0	0	4	Cocklebur plant response rating (cocklebur; [5]): 0; Giant foxtail plant response rating (giant foxtail; [5]): 0; Morningglory plant response rating (morningglory; [5]): 0; Barnyardgrass plant response rating (bamyardgrass; [7]): 0; Barnyardgrass plant response rating (bamyardgrass; [8]): 0
Cc1c(-n2c(=O)on(C(=O)N(c3ccc(F)cc3F)C(C)C)c2=O)ccc2ccccc12 [Compound 337]	0	0	0	0	0	–	0	0	0	2	9	0	0	0	0	0	0	0	0	5	Cocklebur plant response rating (cocklebur; [5]): 0; Giant foxtail plant response rating (giant foxtail; [5]): 0; Morningglory plant response rating (morningglory; [5]): 0; Barnyardgrass plant response rating (bamyardgrass; [7]): 0; Barnyardgrass plant response rating (bamyardgrass; [8]): 0
Cc1c(-n2c(=O)on(C(=O)N(c3ccc(F)cc3)C(C)C)c2=O)ccc2ccccc12 [Compound 338]	0	0	0	0	0	0	0	0	0	0	9	0	0	0	0	0	0	2	0	9	Cocklebur plant response rating (cocklebur; [5]): 0; Giant foxtail plant response rating (giant foxtail; [5]): 0; Morningglory plant response rating (morningglory; [5]): 0; Barnyardgrass plant response rating (bamyardgrass; [7]): 0; Barnyardgrass plant response rating (bamyardgrass; [8]): 0
CC(C)N(C(=O)n1oc(=O)n(C2CCCCCC2)c1=O)c1ccc(Cl)cc1 [Compound 339]	0	0	0	0	0	0	0	1	3	9	10	0	2	0	0	0	0	10	9	9	Cocklebur plant response rating (cocklebur; [11]): 0; Giant foxtail plant response rating (giant foxtail; [11]): 0; Morningglory plant response rating (morningglory; [11]): 2; Barnyardgrass plant response rating (bamyardgrass; [7]): 2; Barnyardgrass plant response rating (bamyardgrass; [8]): 8
CC(C)N(C(=O)n1oc(=O)n(C2CCC2)c1=O)c1ccccc1 [Compound 348]	0	–	0	0	0	2	8	–	10	10	10	9	9	–	0	0	0	10	–	–	Plant response rating, Cocklebur (cocklebur; [12]): 0; Cocklebur plant response rating (cocklebur; [11]): 0; Plant response rating, Giant foxtail (giant foxtail; [12]): 9; Giant foxtail plant response rating (giant foxtail; [11]): 3; Plant response rating, Morningglory (morningglory; [12]): 0; Morningglory plant response rating (morningglory; [11]): 2; Plant response rating, Barnyardgrass (bamyardgrass; [13]): 2; Barnyardgrass plant response rating (bamyardgrass; [14]): 2; Plant response rating, Barnyardgrass (bamyardgrass; [15]): 3; Plant response rating, Barnyardgrass (bamyardgrass; [16]): 7
CC(C)N(C(=O)n1oc(=O)n(C2CCC2)c1=O)c1ccc(Cl)cc1 [Compound 349]	0	–	0	–	0	1	0	–	9	10	10	9	5	–	0	0	0	10	–	–	Plant response rating, Cocklebur (cocklebur; [12]): 0; Cocklebur plant response rating (cocklebur; [11]): 0; Plant response rating, Giant foxtail (giant foxtail; [12]): 8; Giant foxtail plant response rating (giant foxtail; [11]): 0; Plant response rating, Morningglory (morningglory; [12]): 0; Morningglory plant response rating (morningglory; [11]): 5; Plant response rating, Barnyardgrass (bamyardgrass; [13]): 2; Barnyardgrass plant response rating (bamyardgrass; [14]): 2; Plant response rating, Barnyardgrass (bamyardgrass; [15]): 9; Plant response rating, Barnyardgrass (bamyardgrass; [16]): 9
Cc1nsc(Cl)c1Cn1c(=O)on(C(=O)N(c2ccc(F)cc2)C(C)C)c1=O [Compound 373]	1	–	0	0	0	2	3	–	8	10	10	6	8	–	0	0	1	8	0	0	Plant response rating, Cocklebur (cocklebur; [17]): 2; Plant response rating, Cocklebur (cocklebur; [12]): 0; Cocklebur plant response rating (cocklebur; [11]): 0; Plant response rating, Giant foxtail (giant foxtail; [17]): 3; Plant response rating, Giant foxtail (giant foxtail; [12]): 8; Giant foxtail plant response rating (giant foxtail; [11]): 0; Plant response rating, Morningglory (morningglory; [17]): 8; Plant response rating, Morningglory (morningglory; [12]): 0; Morningglory plant response rating (morningglory; [11]): 8; Plant response rating, Barnyardgrass (0 to 10 scale, 0 is no effect, 10 is complete control) (bamyardgrass; Rate 62 g/ha, flood test species, Pre-emergence, visual evaluation after twelve to sixteen days): 0; Barnyardgrass plant response rating (0 to 10 scale, 0 is no effect, 10 is complete control) (bamyardgrass; Rate 125 g/ha, under heading Pre-emergence, flood test species, visual evaluation after twelve to sixteen days): 0
